Assay results published in the NIST ThermoML archive (doi:10.1016/j.tca.2015.01.022).
± gives the expanded uncertainty stated by the source.

Experiment: molar heat capacity at constant pressure
Conditions: 101.33 kPa, Liquid, Small (less than 1 g) adiabatic calorimetry

## CCOS(=O)(=O)[O-].CCn1cc[n+](C)c1 [1-ethyl-3-methylimidazolium ethyl sulfate]
243.76 K
  molar heat capacity at constant pressure: 365.3 ± 1.9 J/K/mol
244.3 K
  molar heat capacity at constant pressure: 365.5 ± 1.9 J/K/mol
245.64 K
  molar heat capacity at constant pressure: 365.8 ± 1.9 J/K/mol
246.24 K
  molar heat capacity at constant pressure: 366.2 ± 1.9 J/K/mol
247.52 K
  molar heat capacity at constant pressure: 366.5 ± 1.9 J/K/mol
248.19 K
  molar heat capacity at constant pressure: 366.7 ± 1.9 J/K/mol
249.39 K
  molar heat capacity at constant pressure: 367 ± 1.9 J/K/mol
250 K
  molar heat capacity at constant pressure: 367.1 ± 1.9 J/K/mol
250.13 K
  molar heat capacity at constant pressure: 367.4 ± 1.9 J/K/mol
251.27 K
  molar heat capacity at constant pressure: 367.4 ± 1.9 J/K/mol
252.07 K
  molar heat capacity at constant pressure: 367.9 ± 1.9 J/K/mol
253.16 K
  molar heat capacity at constant pressure: 368.1 ± 1.9 J/K/mol
254.02 K
  molar heat capacity at constant pressure: 368.6 ± 1.9 J/K/mol
255.04 K
  molar heat capacity at constant pressure: 368.6 ± 1.9 J/K/mol
255.96 K
  molar heat capacity at constant pressure: 369.1 ± 1.9 J/K/mol
256.92 K
  molar heat capacity at constant pressure: 369.1 ± 1.9 J/K/mol
257.91 K
  molar heat capacity at constant pressure: 369.8 ± 1.9 J/K/mol
258.8 K
  molar heat capacity at constant pressure: 369.8 ± 1.9 J/K/mol
259.85 K
  molar heat capacity at constant pressure: 370.3 ± 1.9 J/K/mol
260 K
  molar heat capacity at constant pressure: 370.1 ± 1.9 J/K/mol
260.69 K
  molar heat capacity at constant pressure: 370.3 ± 1.9 J/K/mol
261.8 K
  molar heat capacity at constant pressure: 370.7 ± 1.9 J/K/mol
263.74 K
  molar heat capacity at constant pressure: 371.4 ± 1.9 J/K/mol
265.69 K
  molar heat capacity at constant pressure: 372.2 ± 1.9 J/K/mol
267.63 K
  molar heat capacity at constant pressure: 372.6 ± 1.9 J/K/mol
269.58 K
  molar heat capacity at constant pressure: 373.3 ± 1.9 J/K/mol
270 K
  molar heat capacity at constant pressure: 373.3 ± 1.9 J/K/mol
271.52 K
  molar heat capacity at constant pressure: 373.8 ± 1.9 J/K/mol
273.46 K
  molar heat capacity at constant pressure: 374.3 ± 1.9 J/K/mol
275.41 K
  molar heat capacity at constant pressure: 375 ± 1.9 J/K/mol
277.35 K
  molar heat capacity at constant pressure: 375.7 ± 1.9 J/K/mol
279.3 K
  molar heat capacity at constant pressure: 376.2 ± 1.9 J/K/mol
280 K
  molar heat capacity at constant pressure: 376.4 ± 1.9 J/K/mol
281.24 K
  molar heat capacity at constant pressure: 376.6 ± 1.9 J/K/mol
283.19 K
  molar heat capacity at constant pressure: 377.4 ± 1.9 J/K/mol
285.13 K
  molar heat capacity at constant pressure: 378.1 ± 1.9 J/K/mol
287.08 K
  molar heat capacity at constant pressure: 378.3 ± 1.9 J/K/mol
289.02 K
  molar heat capacity at constant pressure: 379.2 ± 1.9 J/K/mol
290 K
  molar heat capacity at constant pressure: 379.6 ± 1.9 J/K/mol
290.96 K
  molar heat capacity at constant pressure: 380 ± 1.9 J/K/mol
292.91 K
  molar heat capacity at constant pressure: 380.7 ± 2 J/K/mol
294.85 K
  molar heat capacity at constant pressure: 381.4 ± 2 J/K/mol
296.79 K
  molar heat capacity at constant pressure: 382.1 ± 2 J/K/mol
298.15 K
  molar heat capacity at constant pressure: 382.8 ± 1.9 J/K/mol
298.74 K
  molar heat capacity at constant pressure: 383 ± 2 J/K/mol
300 K
  molar heat capacity at constant pressure: 383.6 ± 1.9 J/K/mol
300.68 K
  molar heat capacity at constant pressure: 383.7 ± 2 J/K/mol
302.62 K
  molar heat capacity at constant pressure: 384.7 ± 2 J/K/mol
304.57 K
  molar heat capacity at constant pressure: 385.4 ± 2 J/K/mol
306.51 K
  molar heat capacity at constant pressure: 386.3 ± 2 J/K/mol
308.45 K
  molar heat capacity at constant pressure: 387.3 ± 2 J/K/mol
310 K
  molar heat capacity at constant pressure: 388 ± 2 J/K/mol
310.39 K
  molar heat capacity at constant pressure: 388 ± 2 J/K/mol
312.34 K
  molar heat capacity at constant pressure: 388.9 ± 2 J/K/mol
314.28 K
  molar heat capacity at constant pressure: 389.6 ± 2 J/K/mol
316.22 K
  molar heat capacity at constant pressure: 390.6 ± 2 J/K/mol
318.17 K
  molar heat capacity at constant pressure: 391.5 ± 2 J/K/mol
320 K
  molar heat capacity at constant pressure: 392.6 ± 2 J/K/mol
320.11 K
  molar heat capacity at constant pressure: 392.5 ± 2 J/K/mol
322.05 K
  molar heat capacity at constant pressure: 393.7 ± 2 J/K/mol
324 K
  molar heat capacity at constant pressure: 394.4 ± 2 J/K/mol
325.94 K
  molar heat capacity at constant pressure: 395.3 ± 2 J/K/mol
327.89 K
  molar heat capacity at constant pressure: 396.3 ± 2 J/K/mol
329.83 K
  molar heat capacity at constant pressure: 397.2 ± 2 J/K/mol
330 K
  molar heat capacity at constant pressure: 397.3 ± 2 J/K/mol
331.77 K
  molar heat capacity at constant pressure: 398.1 ± 2 J/K/mol
333.72 K
  molar heat capacity at constant pressure: 399.1 ± 2 J/K/mol
335.66 K
  molar heat capacity at constant pressure: 400.3 ± 2 J/K/mol
337.61 K
  molar heat capacity at constant pressure: 401.5 ± 2.1 J/K/mol
339.55 K
  molar heat capacity at constant pressure: 402.2 ± 2.1 J/K/mol
340 K
  molar heat capacity at constant pressure: 402.3 ± 2 J/K/mol
341.5 K
  molar heat capacity at constant pressure: 403.1 ± 2.1 J/K/mol
343.44 K
  molar heat capacity at constant pressure: 404.3 ± 2.1 J/K/mol
345.39 K
  molar heat capacity at constant pressure: 405 ± 2.1 J/K/mol
347.33 K
  molar heat capacity at constant pressure: 405.9 ± 2.1 J/K/mol
349.28 K
  molar heat capacity at constant pressure: 407.1 ± 2.1 J/K/mol
350 K
  molar heat capacity at constant pressure: 407.5 ± 2.1 J/K/mol
351.22 K
  molar heat capacity at constant pressure: 408.1 ± 2.1 J/K/mol
353.17 K
  molar heat capacity at constant pressure: 409.3 ± 2.1 J/K/mol
355.11 K
  molar heat capacity at constant pressure: 410.2 ± 2.1 J/K/mol
357.06 K
  molar heat capacity at constant pressure: 411.1 ± 2.1 J/K/mol
359 K
  molar heat capacity at constant pressure: 412.1 ± 2.1 J/K/mol
360 K
  molar heat capacity at constant pressure: 412.8 ± 2.1 J/K/mol
360.94 K
  molar heat capacity at constant pressure: 413.3 ± 2.1 J/K/mol
362.88 K
  molar heat capacity at constant pressure: 414.2 ± 2.1 J/K/mol
364.83 K
  molar heat capacity at constant pressure: 415.2 ± 2.1 J/K/mol
366.77 K
  molar heat capacity at constant pressure: 416.3 ± 2.1 J/K/mol
370 K
  molar heat capacity at constant pressure: 418.4 ± 2.2 J/K/mol
